Results taken from ChEMBL document CHEMBL5537207, “Discovery and Characterization of Selective, First-in-Class Inhibitors of Citron Kinase” (J Med Chem, 2024).

Tests used:
[1] = molecular target: T1, Citron Rho-interacting kinase (Homo sapiens, UniProt O14578)
[2] = molecular target: T1, Citron Rho-interacting kinase; assay: Binding affinity to NanoLuc fused-CITK kinase domain (unknown origin) expressed in HEK293T cells assessed as dissociation constant NanoBRET Target Engagement Intracellular Kinase Assay; format: cell-based
[3] = molecular target: T1, Citron Rho-interacting kinase; assay: Binding affinity to NanoLuc fused-CITK (unknown origin) expressed in HEK293T cells assessed as dissociation constant NanoBRET Target Engagement Intracellular Kinase Assay; format: cell-based
COLO 205 = assay: Antiproliferative activity against human COLO 205 Panel cells assessed as cell viability incubated for 48 hrs by CellTiter-Glo cell viability assay; format: functional
[4] = AUC in Sprague-Dawley rat at 10 mg/kg, po measured upto 24 hrs; format: ADME, organism-based; details: in vivo
[5] = AUC in Sprague-Dawley rat at 1 mg/kg, iv measured upto 24 hrs; format: ADME, organism-based; details: in vivo
786-0 = assay: Antiproliferative activity against human 786-0 Panel cells assessed as cell viability incubated for 48 hrs by CellTiter-Glo cell viability assay; format: functional
[6] = Cmax in CD-1 disease model mouse brain at 30 mg/kg, po measured after 24 hrs; format: ADME, organism-based; details: CD-1, mouse
[7] = Plasma clearance in Sprague-Dawley rat at 1 mg/kg, iv measured upto 24 hrs; format: ADME, organism-based
CYP3A4 = CYP3A4 (Homo sapiens, UniProt P08684); assay: Inhibition of CYP3A4 (unknown origin) at 10 uM by LC/MS/MS analysis relative to control; format: ADME
CYP2D6 = CYP2D6 (Homo sapiens, UniProt P10635); assay: Inhibition of CYP2D6 (unknown origin) at 10 uM by LC/MS/MS analysis relative to control; format: ADME
[8] = Oral bioavailability in Sprague-Dawley rat at 10 mg/kg measured upto 24 hrs; format: ADME, organism-based; details: in vivo
[9] = Volume of distribution at steady state in Sprague-Dawley rat at 1 mg/kg, iv measured upto 24 hrs; format: ADME, organism-based; details: in vivo, read-out: Vdss
Hs-578T = assay: Antiproliferative activity against human Hs-578T cells assessed as cell viability incubated for 48 hrs by CellTiter-Glo cell viability assay; format: functional
[10] = Cmax in Sprague-Dawley rat at 10 mg/kg, po measured upto 24 hrs; format: ADME, organism-based; details: in vivo
[11] = AUC in CD-1 disease model mouse plasma at 30 mg/kg, po measured after 24 hrs; format: ADME, organism-based; details: CD-1, mouse
[12] = Cmax in Sprague-Dawley rat at 1 mg/kg, iv measured upto 24 hrs; format: ADME, organism-based; details: in vivo
[13] = Half life in Sprague-Dawley rat at 1 mg/kg, iv measured upto 24 hrs; format: ADME, organism-based; details: in vivo
[14] = Unbound fraction in human plasma measured after 4.5 hrs by LC-MS/MS analysis; format: ADME, cell-free
[15] = Unbound fraction in rat plasma measured after 4.5 hrs by LC-MS/MS analysis; format: ADME, cell-free
[16] = Apparent permeability across apical to basolateral side in dog MDCK cells incubated for 1 hr by LCMS analysis; format: ADME, cell-based, Canis lupus familiaris
[17] = Half life in Sprague-Dawley rat at 10 mg/kg, po measured upto 24 hrs; format: ADME, organism-based; details: in vivo
[18] = AUC in CD-1 disease model mouse brain at 30 mg/kg, po measured after 24 hrs; format: ADME, organism-based; details: CD-1, mouse
[19] = Cmax in CD-1 disease model mouse plasma at 30 mg/kg, po measured after 24 hrs; format: ADME, organism-based; details: CD-1, mouse
[20] = tested on: Panel NCI-60 (60 carcinoma cell lines); assay: Antiproliferative activity against human Panel NCI-60 (60 carcinoma cell lines) assessed as cell viability incubated for 48 hrs by CellTiter-Glo cell viability assay; format: functional
CYP2C9 = CYP2C9 (Homo sapiens, UniProt P11712); assay: Inhibition of CYP2C9 (unknown origin) at 10 uM by LC/MS/MS analysis relative to control; format: ADME
JVM-3 = assay: Antiproliferative activity against human JVM-3 cells assessed as cell viability by standard PRISM assay; format: functional, cell-based

T1 sequence (O14578 whole entry, the tested form may be a part): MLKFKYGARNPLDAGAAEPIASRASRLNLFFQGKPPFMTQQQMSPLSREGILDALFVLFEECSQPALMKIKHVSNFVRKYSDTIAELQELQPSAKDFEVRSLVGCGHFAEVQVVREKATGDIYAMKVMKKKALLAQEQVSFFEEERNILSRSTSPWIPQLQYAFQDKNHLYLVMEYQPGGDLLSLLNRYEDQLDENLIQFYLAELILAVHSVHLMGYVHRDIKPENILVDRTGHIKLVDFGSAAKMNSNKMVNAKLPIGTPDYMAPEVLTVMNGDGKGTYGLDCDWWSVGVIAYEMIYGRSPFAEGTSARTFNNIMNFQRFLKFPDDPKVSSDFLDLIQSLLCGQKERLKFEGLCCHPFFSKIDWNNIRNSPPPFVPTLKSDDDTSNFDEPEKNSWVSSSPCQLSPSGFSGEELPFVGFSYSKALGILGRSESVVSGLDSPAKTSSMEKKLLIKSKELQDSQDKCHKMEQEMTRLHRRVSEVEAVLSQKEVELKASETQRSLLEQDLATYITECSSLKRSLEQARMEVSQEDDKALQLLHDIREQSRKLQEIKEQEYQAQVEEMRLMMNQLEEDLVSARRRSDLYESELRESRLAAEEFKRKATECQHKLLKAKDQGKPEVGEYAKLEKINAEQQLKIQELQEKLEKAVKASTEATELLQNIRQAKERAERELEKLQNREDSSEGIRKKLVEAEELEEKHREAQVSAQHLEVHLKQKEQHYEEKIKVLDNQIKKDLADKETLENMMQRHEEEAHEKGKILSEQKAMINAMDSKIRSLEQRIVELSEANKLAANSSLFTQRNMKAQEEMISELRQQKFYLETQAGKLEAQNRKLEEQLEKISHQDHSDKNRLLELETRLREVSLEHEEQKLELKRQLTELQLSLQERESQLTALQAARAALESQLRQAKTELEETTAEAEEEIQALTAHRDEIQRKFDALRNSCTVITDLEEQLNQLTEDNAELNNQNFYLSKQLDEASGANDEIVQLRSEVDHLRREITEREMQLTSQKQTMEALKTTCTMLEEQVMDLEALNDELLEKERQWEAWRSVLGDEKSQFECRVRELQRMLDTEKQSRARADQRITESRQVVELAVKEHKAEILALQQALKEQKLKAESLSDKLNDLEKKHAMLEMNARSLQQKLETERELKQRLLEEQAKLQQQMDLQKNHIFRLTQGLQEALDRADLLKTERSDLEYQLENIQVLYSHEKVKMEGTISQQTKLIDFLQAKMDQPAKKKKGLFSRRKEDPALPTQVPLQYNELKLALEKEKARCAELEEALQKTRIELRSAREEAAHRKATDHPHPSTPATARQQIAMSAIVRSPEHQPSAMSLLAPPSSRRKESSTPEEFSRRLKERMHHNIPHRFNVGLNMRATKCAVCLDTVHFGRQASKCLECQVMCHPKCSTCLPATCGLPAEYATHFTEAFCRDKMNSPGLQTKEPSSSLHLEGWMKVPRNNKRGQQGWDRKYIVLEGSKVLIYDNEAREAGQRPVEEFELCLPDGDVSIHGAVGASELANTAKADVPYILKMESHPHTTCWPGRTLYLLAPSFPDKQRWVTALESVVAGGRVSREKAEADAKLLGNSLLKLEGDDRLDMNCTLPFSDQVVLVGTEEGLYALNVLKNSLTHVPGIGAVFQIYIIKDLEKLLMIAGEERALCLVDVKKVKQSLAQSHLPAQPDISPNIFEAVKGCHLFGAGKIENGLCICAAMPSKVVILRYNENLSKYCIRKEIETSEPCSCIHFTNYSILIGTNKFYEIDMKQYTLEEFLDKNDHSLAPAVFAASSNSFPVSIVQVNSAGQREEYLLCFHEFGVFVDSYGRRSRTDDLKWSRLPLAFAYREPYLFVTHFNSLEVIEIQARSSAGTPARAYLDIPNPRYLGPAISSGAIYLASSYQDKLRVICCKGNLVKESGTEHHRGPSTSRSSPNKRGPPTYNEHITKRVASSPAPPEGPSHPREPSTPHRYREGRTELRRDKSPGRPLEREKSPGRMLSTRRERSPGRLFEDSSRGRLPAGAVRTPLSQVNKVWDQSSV
Sequence of CYP3A4 (P08684 whole entry): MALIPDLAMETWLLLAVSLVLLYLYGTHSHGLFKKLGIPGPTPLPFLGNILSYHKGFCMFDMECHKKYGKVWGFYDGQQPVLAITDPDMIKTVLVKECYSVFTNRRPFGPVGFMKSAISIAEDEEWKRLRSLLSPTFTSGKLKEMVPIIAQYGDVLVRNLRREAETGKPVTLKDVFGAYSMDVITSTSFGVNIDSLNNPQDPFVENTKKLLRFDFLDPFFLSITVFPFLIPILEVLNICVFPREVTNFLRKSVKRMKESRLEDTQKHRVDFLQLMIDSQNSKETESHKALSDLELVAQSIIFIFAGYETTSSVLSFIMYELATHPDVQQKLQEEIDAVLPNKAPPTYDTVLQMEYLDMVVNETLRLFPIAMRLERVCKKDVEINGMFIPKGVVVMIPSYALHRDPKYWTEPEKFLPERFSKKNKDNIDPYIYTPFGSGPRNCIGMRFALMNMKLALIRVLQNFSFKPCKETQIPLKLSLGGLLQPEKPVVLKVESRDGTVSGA
Sequence of CYP2C9 (P11712 whole entry): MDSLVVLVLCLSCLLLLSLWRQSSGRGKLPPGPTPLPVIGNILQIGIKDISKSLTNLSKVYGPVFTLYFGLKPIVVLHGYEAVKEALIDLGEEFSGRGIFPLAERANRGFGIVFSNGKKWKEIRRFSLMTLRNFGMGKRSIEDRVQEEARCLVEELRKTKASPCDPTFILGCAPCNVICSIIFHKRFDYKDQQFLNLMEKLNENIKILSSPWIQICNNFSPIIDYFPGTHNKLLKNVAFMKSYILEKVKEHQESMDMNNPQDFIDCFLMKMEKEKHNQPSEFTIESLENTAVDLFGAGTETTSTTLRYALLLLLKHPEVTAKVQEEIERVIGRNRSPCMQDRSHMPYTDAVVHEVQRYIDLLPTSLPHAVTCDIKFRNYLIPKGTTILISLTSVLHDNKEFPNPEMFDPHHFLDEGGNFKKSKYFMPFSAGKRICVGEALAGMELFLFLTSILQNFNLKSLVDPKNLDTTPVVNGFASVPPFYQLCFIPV
Sequence of CYP2D6 (P10635 whole entry): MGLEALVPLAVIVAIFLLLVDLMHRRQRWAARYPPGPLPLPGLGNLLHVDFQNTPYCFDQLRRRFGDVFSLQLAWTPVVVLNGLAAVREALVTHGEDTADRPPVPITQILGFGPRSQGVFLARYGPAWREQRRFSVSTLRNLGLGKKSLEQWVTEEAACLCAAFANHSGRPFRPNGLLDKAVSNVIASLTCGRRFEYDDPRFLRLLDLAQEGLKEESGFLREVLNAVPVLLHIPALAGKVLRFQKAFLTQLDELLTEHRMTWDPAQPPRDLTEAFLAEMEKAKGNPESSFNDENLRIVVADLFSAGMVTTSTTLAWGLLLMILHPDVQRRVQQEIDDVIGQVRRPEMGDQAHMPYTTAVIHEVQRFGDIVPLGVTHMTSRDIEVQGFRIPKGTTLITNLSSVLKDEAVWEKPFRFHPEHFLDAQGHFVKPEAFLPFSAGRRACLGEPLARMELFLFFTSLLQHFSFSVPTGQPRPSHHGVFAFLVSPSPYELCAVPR

Cc1cc2c(-c3ccc(NC(=O)[C@H](N)CC(C)(C)C)cc3C)cncc2[nH]1
IC50 [1]: > 30000 nM
Kd [2]: Not Active
Kd [3]: Not Active

CC(N)c1ccc(-c2ccnc3[nH]ccc23)cc1 (centres undefined)
IC50 [1]: 500 nM

Cc1cc2c(-c3ccc(NC(=O)[C@H](N)CC(C)(C)C)cc3C)ccnc2[nH]1
GI50 (COLO 205): < 2000 nM
AUC [4]: 7.3 µM·h
AUC [5]: 10.2 µM·h
GI50 (786-0): < 2000 nM
Cmax [6]: 1.02 µM
clearance [7]: 4.4 mL/min/kg
inhibition at 10 µM (CYP3A4): 28.3%
inhibition at 10 µM (CYP2D6): 56.2%
F [8]: 72%
Vd [9]: 0.91 L/kg
GI50 (Hs-578T): < 2000 nM
Cmax [10]: 12.3 µM
AUC at 24 h [11]: 90.5 µM·h
Cmax [12]: 5.8 µM
half-life [13]: 4.3 h
Fu [14]: 0.52%
Fu [15]: 0.26%
Papp A→B at 1 h [16]: 21.3 ×10⁻⁶ cm/s
half-life [17]: 4 h
AUC at 24 h [18]: 7.71 µM·h
Cmax [19]: 12.9 µM
GI50 [20]: 7000 nM
inhibition at 10 µM (CYP2C9): 6.7%

CC(C)C[C@H](N)C(=O)Nc1ccc(-c2ccnc3[nH]ccc23)cc1
IC50 [1]: 42 nM

CC(C)CC(CN)C(=O)Nc1ccc(-c2ccnc3[nH]ccc23)cc1 (centres undefined)
IC50 [1]: 410 nM

CC(N)C(=O)Nc1ccc(-c2ccnc3[nH]ccc23)cc1 (centres undefined)
IC50 [1]: 250 nM

Cc1cc2c(-c3ccc(NC(=O)[C@@H](N)[C@H](O)C(C)C)cc3C)ccnc2[nH]1
IC50 [1]: 16 nM

Cc1cc2c(-c3ccc(NC(=O)[C@H](N)[C@@H](O)C(C)C)cc3C)ccnc2[nH]1
IC50 [1]: 5.5 nM
IC50 (JVM-3): 4400 nM

C[C@@H](N)c1ccc(C(=O)Nc2ccnc3[nH]ccc23)cc1 [Y-39983]
IC50 [1]: 150 nM
